This note sets out measurements from patent US7687651B2, “Method for the preparation of trans-or cis-diammoniumdichlorodihydroxoplatinum(IV) and the use thereof in the production of pharmaceutical active substances” (priority 2003, dated 2010).

Usually IC50 stands for the concentration needed to halve the response being measured.

Common to all, as to assay type: cell-based, human
For experiment [1], the system named is C320DM Colon carcinoma. The experiment can be described thus: Growth inhibition test on C320DM cells. Conditions: Table 1. Here is the method:
(§1) Growth inhibition tests on various human cell lines show the different activities of cisplatin, cis-oxoplatin and oxaliplatin. […] The following Table illustrates the results produced with cisplatin, oxoplatin, carboplatin and oxaliplatin (the values specified are IC50 values in μg/ml, i.e., the concentration where 50% of the cells survive, nd=not determined; res=resistant=non-sensitive or IC50 value cannot be determined at a concentration of up to 40 μg/ml; IC=inhibition concentration).

In experiment [2] the test system is Panc1 Pancreatic cancer. The experiment can be described thus: Growth inhibition test on Panc1 cells. Conditions: Table 1. Here is the method: as §1
Experiment [3] concerns M607 Melanoma. The experiment can be described thus: Growth inhibition test on M607 cells. As to conditions: Table 1. Here is the method:
as §1

The test system of experiment [4] is A498 Renal cells. The experiment can be described thus: Growth inhibition test on A498 cells. Conditions: Table 1. Here is the method: as §1
For experiment [5], the system named is CC1227 Colon carcinoma. The experiment can be described thus: Growth inhibition test on CC1227 cells. Conditions: Table 1. Here is the method:
as §1

Experiment [6] relates to T47D Breast cancer. The experiment can be described thus: Growth inhibition test on T47D cells. Here is the method: (§2) The effect of cis-oxoplatin Ca and cis-oxoplatin was compared on 10 cell lines (Table 4).
(§3) (IC50 values specified in μg/ml; the test was performed as a formazan test).

The subject of experiment [7] is Me128 Melanoma. The experiment can be described thus: Growth inhibition test on Me128 cells. As to conditions: Table 1. The procedure:
as §1

The test system of experiment [8] is HCT8 Colon carcinoma. The experiment can be described thus: Growth inhibition test on HCT8 cells. Conditions: Table 1. Here is the method: as §1
Experiment [9] concerns BxPC3 Pancreatic cancer. The experiment can be described thus: Growth inhibition test on BxPC3 cells. Here is the method:
as §2, §3

The subject of experiment [10] is JVSO Melanoma. The experiment can be described thus: Growth inhibition test on JVSO cells. Conditions: Table 1. Here is the method:
as §1

Experiment [11] concerns Colo205 Colon carcinoma. The experiment can be described thus: Growth inhibition test on Colo205 cells. Here is the method: as §2, §3
Experiment [12] relates to MCF-7 Breast cancer. The experiment can be described thus: Growth inhibition test on MCF-7 cells. As to conditions: Table 1. The procedure:
as §1

The test system of experiment [13] is MiaPaCa2 Pancreatic cancer. The experiment can be described thus: Growth inhibition test on MiaPaCa2 cells. Conditions: Table 1. Here is the method: as §1
In experiment [14] the test system is HT29 Colon carcinoma. The experiment can be described thus: Growth inhibition test on HT29 cells. The procedure: as §2, §3
For experiment [15], the system named is M518 Melanoma. The experiment can be described thus: Growth inhibition test on M518 cells. As to conditions: Table 1. The procedure: as §1
Experiment [16] has as its system HCT-15 Colon carcinoma. The experiment can be described thus: Growth inhibition test on HCT-15 cells. Conditions: Table 1. The procedure: as §1
Experiment [17] relates to Du145 Prostate. The experiment can be described thus: Growth inhibition test on Du145 cells. Conditions: for IC50: Du145 Prostate. The procedure: as §2, §3
In experiment [18] the test system is MDA-MB-435 Breast. The experiment can be described thus: Formazan test on MDA-MB-435 cells. Conditions: Table 4. Here is the method: as §2, §3
For experiment [19], the system named is SW480 Colon. The experiment can be described thus: Growth inhibition test on SW480 cells. As to conditions: for IC50: SW480 Colon. Here is the method:
as §2, §3

The test system of experiment [20] is 10 cell lines (Table 4). The experiment can be described thus: Formazan test, IC50 mean value for all cell lines of Table 4. Conditions: mean over the 10 cell lines of Table 4. Here is the method: as §2, §3
The subject of experiment [21] is BT20 Breast. The experiment can be described thus: Formazan test on BT20 cells. As to conditions: Table 4. Here is the method: as §2, §3
Experiment [22] deals with CaCo-2 Colon. The experiment can be described thus: Growth inhibition test on CaCo-2 cells. As to conditions: for IC50: CaCo-2 Colon. The procedure: as §2, §3
In experiment [23] the test system is CRO2B Carcinoid. The experiment can be described thus: Growth inhibition test on CRO2B cells. Conditions: for IC50: CRO2B Carcinoid. The procedure:
as §2, §3

The subject of experiment [24] is PC3 Prostate. The experiment can be described thus: Growth inhibition test on PC3 cells. Conditions: for IC50: PC3 Prostate; for % Survival: PC3 cells. The procedure: as §1
For experiment [25], the system named is HT29, SW480, SK-OV4, PC3, SIM, CaCO-2, DU145 and CRO2B cells. The experiment can be described thus: Growth inhibition, IC50 over eight cell lines of Table 2. As to conditions: CaCO-2, DU145, CRO2B. The procedure: as §1
The activities differ according to the cell line.

The subject of experiment [26] is SK-OV3 Ovarian cancer. The experiment can be described thus: Growth inhibition test on SK-OV3 cells. As to conditions: Table 2. Here is the method: as §1
Experiment [27] concerns SK-OV4 Ovarian cancer. The experiment can be described thus: Growth inhibition test on SK-OV4 cells. Here is the method:
as §1

Experiment [28] relates to SIM Sarcoma. The experiment can be described thus: Growth inhibition test on SIM cells. The procedure:
as §1
What is seen primarily in children are leukemias, neuroblastomas and Ewing's sarcoma/peripheral neuroectodermal tumors (group of the Ewing family of tumors=EFT). The investigated tumor cell lines include three EFTs (EW-7, SIM and KAL), as well as two neuroblastoma cell lines (NB: LAN1 and LAN5; Los Angeles neuroblastoma=LAN) (see Table 3).

Experiment [29] concerns U 373 MG Astrocytoma. The experiment can be described thus: Growth inhibition test on U 373 MG cells. Conditions: Table 2. The procedure: as §1
The test system of experiment [30] is SaOS Osteosarcoma. The experiment can be described thus: Growth inhibition test on SaOS cells. Conditions: Table 1. Here is the method:
as §1

Experiment [31] has as its system HOS Osteosarcoma. The experiment can be described thus: Growth inhibition test on HOS cells. As to conditions: Table 1. Here is the method: as §1
[32] abbreviates: Table 1, BxPC3 Pancreatic cancer.
Setting [33] is: Table 1, Colo205 Colon carcinoma.

In the case of `O=C1[O][Pt]2([NH][C@@H]3CCCC[C@H]3[NH]2)[O]C1=O` [Oxaliplatin, oxaliplatin], the IC50 in experiment [1] was 0.15 µg/mL; in experiment [2], 5 µg/mL; in experiment [3] it was 10 µg/mL; in experiment [4], 10 µg/mL; in [5], 0.2 µg/mL; in [6] (Table 1, T47D Breast cancer), 0.1 µg/mL. Moreover, the 50% inhibitory concentration (IC50) in experiment [7] is 10 µg/mL; in [8], “res (res=resistant=non-sensitive or IC50 value cannot be determined at a concentration of up to 40 μg/ml)”; in experiment [9] (setting [32]), 10 µg/mL; in experiment [10], “res (res=resistant=non-sensitive or IC50 value cannot be determined at a concentration of up to 40 μg/ml)”; in experiment [11] (setting [33]) it was 1 µg/mL; in experiment [12] it was “res (res=resistant=non-sensitive or IC50 value cannot be determined at a concentration of up to 40 μg/ml)”. The IC50 is 5 µg/mL in [13]; 20 µg/mL in experiment [14] (Table 1, HT29 Colon carcinoma); “res (res=resistant=non-sensitive or IC50 value cannot be determined at a concentration of up to 40 μg/ml)” in experiment [15]; 10 µg/mL in experiment [16].
Consider “cis-diammoniumdichlorodihydroxoplatinum(IV) Calcium Salt [Oxoplatin Ca]”, for which the IC50 stood at 14.5 µg/mL in [17] (Table 4, formazan test); 12.0 µg/mL in [18]; 3.6 µg/mL in [6] (Table 4, T47D Breast, formazan test); 30.0 µg/mL in experiment [9] (Table 4, BxPC3 Pancreas, formazan test); 2.5 µg/mL in [19] (Table 4, formazan test); 13.5 µg/mL in experiment [11] (Table 4, Colo205 Colon, formazan test). Further, the IC50 in experiment [14] (Table 4, HT29 Colon, formazan test) turned out to be 8.0 µg/mL; in [21], 3.5 µg/mL; in experiment [22] (Table 4, formazan test) it was 0.87 µg/mL; in experiment [23] (Table 4, formazan test), 2.20 µg/mL. Also, the “IC50 (±SEM) mean value for all cell lines” value in experiment [20] amounted to 9.1 ± 2.8 µg/mL.
As to `N.N.[Cl][Pt][Cl]` [Cisplatin, cisplatin], the half-maximal inhibitory concentration (IC50) entry in [24] (Table 1) is “res (res=resistant=non-sensitive or IC50 value cannot be determined at a concentration of up to 40 μg/ml)”; in experiment [1] it was 0.3 µg/mL; in experiment [2], 1 µg/mL; in experiment [3] it was 0.3 µg/mL; in experiment [4] it was 1 µg/mL; in [5], 0.3 µg/mL. For the same compound, the IC50 was 0.3 µg/mL in [6] (Table 1, T47D Breast cancer); 0.3 µg/mL in experiment [7]; 5 µg/mL in experiment [8]; 0.6 µg/mL in [9] (setting [32]); 40 µg/mL in experiment [10]; 10 µg/mL in experiment [11] (setting [33]). Further, the IC50 in experiment [12] is 2.5 µg/mL; in experiment [13], 1.5 µg/mL; in experiment [14] (Table 1, HT29 Colon carcinoma) it was 0.3 µg/mL; in experiment [15], 40 µg/mL; in experiment [16] it was 0.3 µg/mL.
Take `[NH2][Pt]([NH2])([O-])([O-])([Cl])[Cl].[Na+].[Na+]` [cis-Oxoplatin sodium salt, cis-diammoniumdichlorodihydroxoplatinum(IV) Disodium Salt]: the “efficiency compared with cis-oxoplatin” value is reported as “less efficient” in experiment [17] (DU145, Na salt versus cis-oxoplatin); “less efficient” in [22] (CaCO-2, Na salt versus cis-oxoplatin); “less efficient” in [23] (CRO2B, Na salt versus cis-oxoplatin). Further, the concentration for half-maximal inhibition (IC50) was found to be 27.0 µg/mL in [17] (Table 2); 5.3 µg/mL in [24] (Table 2); 18 µg/mL in experiment [6] (Table 2, T47D Breast cancer); 22 µg/mL in [26]; 12.8 µg/mL in experiment [27] (Table 2, SK-OV4 Ovarian cancer); 12 µg/mL in experiment [9] (Table 2, BxPC3 Pancreatic carcinoma). Further, the IC50 in experiment [19] (Table 2) stood at 2.5 µg/mL; in [28] (Table 2, SIM Sarcoma) it was 11.2 µg/mL; in [29] it was 18 µg/mL; in [14] (Table 2, HT29 Colon), 4.55 µg/mL; in [22] (Table 2) it was 2.22 µg/mL; in [23] (Table 2), 10.1 µg/mL. Further, the “IC50 values of these cells (mean ± spread)” value in [25] is 9.5 ± 8 µg/mL. The “more effective than cis-oxoplatin” value was “about 30%” in experiment [24] (PC3, Na salt versus cis-oxoplatin); “about 30%” in [27] (SK-OV4, Na salt versus cis-oxoplatin); “about 70%” in [19] (SW480, Na salt versus cis-oxoplatin); “about 30%” in experiment [28] (SIM, Na salt versus cis-oxoplatin); “about 70%” in experiment [14] (HT29, Na salt versus cis-oxoplatin). In addition, the “% Survival” value is 109.3 ± 9.1% in experiment [24] (Conc. 5 μg/ml), 77.7 ± 2.4% in [24] (Conc. 10 μg/ml), 33.2 ± 3.0% in experiment [24] (Conc. 20 μg/ml) and 0.6 ± 0.5% in experiment [24] (Conc. 40 μg/ml).
Turning to `N.N.O=C([O-])C1(C(=O)[O-])CCC1.[Pt+2]` [Carboplatin, carboplatin], the 50% inhibitory concentration (IC50) was 5 µg/mL in [30]; 10 µg/mL in experiment [24] (Table 1); 10 µg/mL in [1]; 20 µg/mL in [2]; 10 µg/mL in experiment [3]; “res (res=resistant=non-sensitive or IC50 value cannot be determined at a concentration of up to 40 μg/ml)” in experiment [4]. Further, the concentration for half-maximal inhibition (IC50) entry is “res (res=resistant=non-sensitive or IC50 value cannot be determined at a concentration of up to 40 μg/ml)” in experiment [5]; 10 µg/mL in [7]; “res (res=resistant=non-sensitive or IC50 value cannot be determined at a concentration of up to 40 μg/ml)” in experiment [8]; 10 µg/mL in experiment [9] (setting [32]); “res (res=resistant=non-sensitive or IC50 value cannot be determined at a concentration of up to 40 μg/ml)” in [10]; “res (res=resistant=non-sensitive or IC50 value cannot be determined at a concentration of up to 40 μg/ml)” in experiment [11] (setting [33]). Also, the 50% inhibitory concentration (IC50) result in [12] was “res (res=resistant=non-sensitive or IC50 value cannot be determined at a concentration of up to 40 μg/ml)”; in experiment [13] it was 5 µg/mL; in experiment [14] (Table 1, HT29 Colon carcinoma), 20 µg/mL; in experiment [15], “res (res=resistant=non-sensitive or IC50 value cannot be determined at a concentration of up to 40 μg/ml)”; in experiment [16] it was “res (res=resistant=non-sensitive or IC50 value cannot be determined at a concentration of up to 40 μg/ml)”; in experiment [31], 5 µg/mL.
